{"source": "patent US9889170B1", "about": "“Synthesis of nanoparticles using Balanites aegyptiaca” (KING SAUD UNIVERSITY, priority 2016, dated 2018)", "assay_in_all_cases": "Agar well diffusion assay", "type_in_all_cases": "cell-based", "key": {"[1]": {"tested_on": "Escherichia coli (RCMB 010052)", "details": "100 μl per well, mean ± SD", "description": "(§1) Antimicrobial activity of nanoparticles was determined using the agar well diffusion assay method as described by Holder and Boyce, 1994. Three bacterial (two gram positive and one gram negative) and […], namely, Bacillis suhtilis (RCMB 010067), […] pneumoniae (RCMB 010011), Escherichia coli (RCMB 010052), and Aspergillus fumigatus (RCMB 02568). The tested organisms were sub-cultured on nutrient agar medium (Oxoid laboratories, UK) for bacteria and Sabouraud dextrose agar (Oxoid laboratories, UK) for fungi. Ampicillin and Gentamicin were used as positive control for gram positive and gram negative bacteria, respectively, while Amphotericin B was used for fungi. The plates were done in triplicates. Bacterial cultures were incubated at 37° C. for 24 h, while the fungal cultures were incubated at 25-30° C. for 3-7 days. Antimicrobial activity was determined by measuring the zone of inhibition [A. Agwa, (2000)]. The antimicrobial effect of the B. aegyptiaca nanoparticles was evaluated against different gram positive and gram negative bacteria as well as fungi. The results of the antimicrobial effects of the synthesized nanoparticles are compiled in the Tables below."}, "[2]": {"tested_on": "Pseudomonas aeruginosa (RCMB 010043)", "details": "100 μl per well, mean ± SD"}, "[3]": {"tested_on": "Salmonella typhimurium (RCMB 010072)", "details": "100 μl per well, mean ± SD"}, "[4]": {"tested_on": "Klebsiella pneumoniae (RCMB 000111)", "details": "100 μl per well, mean ± SD"}, "[5]": {"tested_on": "Escherichia coli (RCMB 010054)", "details": "samples at 100 μl, mean ± SD"}, "[6]": {"tested_on": "Staphylococcus aureus (RCMB 010028)", "details": "100 μl per well, mean ± SD"}, "[7]": {"tested_on": "Bacillis subtilis (RCMB 010067)", "details": "100 μl per well, mean ± SD", "description": "as §1"}, "[8]": {"tested_on": "Bacillis subtilis (RCMB 010068)", "details": "samples at 100 μl, mean ± SD", "description": "as §1"}, "[9]": {"tested_on": "Streptococcus pneumoniae (RCMB 010011)", "details": "samples at 100 μl, mean ± SD", "description": "as §1"}, "[10]": {"tested_on": "Geotricum candidum (RCMB 05097)", "details": "100 μl per well, mean ± SD"}, "[11]": {"tested_on": "Aspergillus fumigatus (RCMB 02567)", "details": "samples at 100 μl, mean ± SD", "description": "as §1"}, "[12]": {"tested_on": "Aspergillus fumigatus (RCMB 02568)", "details": "100 μl per well, mean ± SD", "description": "as §1"}}}
{"molecule": "Gentamicin", "values": [{"measurement": "Mean zone of inhibition beyond well diameter (6 mm)", "setting": "[1]", "value": "22.3 ± 0.18", "unit": "mm"}, {"measurement": "Mean zone of inhibition beyond well diameter (6 mm)", "setting": "[2]", "value": "17.3 ± 0.15", "unit": "mm"}, {"measurement": "Mean zone of inhibition beyond well diameter (6 mm)", "setting": "[3]", "value": "25.4 ± 0.18", "unit": "mm"}, {"measurement": "Mean zone of inhibition beyond well diameter (6 mm)", "setting": "[4]", "value": "20.2 ± 0.25", "unit": "mm"}, {"measurement": "Diameter of the inhibition zone beyond the well diameter of 6 mm", "setting": "[5]", "value": "20.3 ± 0.58", "unit": "mm"}]}
{"molecule": "CC1(C)S[C@@H]2[C@H](NC(=O)[C@H](N)c3ccccc3)C(=O)N2[C@H]1C(=O)O", "note": "[Ampicillin]", "values": [{"measurement": "Mean zone of inhibition beyond well diameter (6 mm)", "setting": "[6]", "value": "27.4 ± 0.18", "unit": "mm"}, {"measurement": "Mean zone of inhibition beyond well diameter (6 mm)", "setting": "[7]", "value": "32.4 ± 0.10", "unit": "mm"}, {"measurement": "Diameter of the inhibition zone beyond the well diameter of 6 mm", "setting": "[8]", "value": "31.3 ± 1.5", "unit": "mm"}, {"measurement": "Diameter of the inhibition zone beyond the well diameter of 6 mm", "setting": "[9]", "value": "21.0 ± 1.0", "unit": "mm"}]}
{"molecule": "C[C@@H]1[C@H](O)[C@@H](C)/C=C/C=C/C=C/C=C/C=C/C=C/C=C/[C@H](O[C@@H]2O[C@H](C)[C@@H](O)[C@H](N)[C@@H]2O)C[C@@H]2O[C@](O)(C[C@@H](O)C[C@@H](O)[C@H](O)CC[C@@H](O)C[C@@H](O)CC(=O)O[C@H]1C)C[C@H](O)[C@H]2C(=O)O", "note": "[Amphotericin B]", "values": [{"measurement": "Mean zone of inhibition beyond well diameter (6 mm)", "setting": "[10]", "value": "28.7 ± 0.22", "unit": "mm"}, {"measurement": "Diameter of the inhibition zone beyond the well diameter of 6 mm", "setting": "[11]", "value": "21.7 ± 1.5", "unit": "mm"}, {"measurement": "Mean zone of inhibition beyond well diameter (6 mm)", "setting": "[12]", "value": "23.7 ± 0.10", "unit": "mm"}]}
